Ten compounds from ChEMBL document CHEMBL1201862, “PubChem BioAssay data set” (2004) can be followed below.

Test systems include HCT-15; CCRF-CEM; HOP-92; T47D; NCI-H522; HT-29; COLO 205; UACC-257; Hs-578T; SK-MEL-5; PC-3; M14; OVCAR-5; A498; SNB-19; RXF 393; NCI/ADR-RES; U-251; SK-MEL-28; NCI-H226.
Experiment in all cases: growth of human tumour cells (NCI), 48 h

Structures can show the parent of a compound that is named as a salt.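 Exposure lasted 48 hours, with cells grown in 96-well plates and compounds tested at five concentrations. GI50 = concentration required for 50% inhibition of growth.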 Calls of active or inactive are those of the source. Rule as the data show it: active = GI50 up to about 1.1 µM and inactive = higher. A value given as a limit tells only on which side of the number the result lay.

With `c1ccc2c3c(c(N4CCOCC4)nc2c1)CCCC3`, the GI50 with HCT-15 is 35.3 µM; in the assay on CCRF-CEM it was 31.9 µM (inactive); in the assay on HOP-92, 67.1 µM (inactive); with T47D, 16 µM (inactive); in the assay with NCI-H522, 29.7 µM (inactive); in the assay with HT-29 it was 22.7 µM (inactive). Further, the GI50 in the assay with COLO 205 was 20 µM (inactive); in the assay with UACC-257, 40.8 µM (inactive); in the assay with Hs-578T it was 76.6 µM (inactive); in the assay with SK-MEL-5, 20.2 µM (inactive); with PC-3, 36.6 µM (inactive); in the assay with M14, 50.7 µM (inactive). The GI50 was 15.1 µM (inactive) with OVCAR-5; 24 µM (inactive) in the assay on A498; 36.9 µM (inactive) in the assay on SNB-19; 19.8 µM (inactive) in the assay on RXF 393; 29.9 µM (inactive) in the assay with NCI/ADR-RES; 36.6 µM (inactive) in the assay with U-251. For the same compound, the GI50 in the assay with SK-MEL-28 is 85.1 µM (inactive); in the assay with NCI-H226, 19.6 µM (inactive).

On to `O=C(O[C@H]1[C@@H](O)[C@H](n2cnc3c(Cl)ncnc32)O[C@@H]1COC(c1ccccc1)(c1ccccc1)c1ccccc1)c1ccccc1`, for which the GI50 in the assay on HCT-15 is 17.4 µM; in the assay with CCRF-CEM it was 3.55 µM (inactive); in the assay with HOP-92 it was 15.8 µM (inactive); in the assay on T47D, 3.98 µM (inactive); with NCI-H522 it was 5.09 µM (inactive); in the assay on HT-29 it was 18.5 µM (inactive). The GI50 in the assay on COLO 205 was 15.9 µM (inactive); in the assay on UACC-257, 14.7 µM (inactive); in the assay with Hs-578T, 2.9 µM (inactive); with SK-MEL-5, 8.47 µM (inactive); in the assay with PC-3, 11 µM (inactive); in the assay with M14 it was 26.3 µM (inactive). Besides, the GI50 is > 100 µM (inactive) in the assay with OVCAR-5; 17.2 µM (inactive) with A498; 39.3 µM (inactive) with SNB-19; 16.6 µM (inactive) with RXF 393; 34.8 µM (inactive) with NCI/ADR-RES; 22.8 µM (inactive) with U-251. Also, the GI50 is 46.3 µM (inactive) with SK-MEL-28 and 13 µM (inactive) in the assay with NCI-H226.

Turning to `COc1ccc2nc(C)cc(NCCCCCCCCCNc3cc(C)nc4ccc(OC)cc34)c2c1`, the GI50 with HCT-15 was 2.3 µM; with CCRF-CEM, 1.27 µM (inactive); in the assay on HOP-92 it was 1.24 µM (inactive); in the assay on T47D, 1.73 µM (inactive); with NCI-H522, 0.834 µM (active); in the assay on HT-29, 0.55 µM (active). The GI50 was 2.28 µM (inactive) with COLO 205; 13.7 µM (inactive) in the assay with UACC-257; 1.64 µM (inactive) with Hs-578T; 1.71 µM (inactive) in the assay with SK-MEL-5; 1.02 µM (active) in the assay on PC-3; 1.95 µM (inactive) in the assay on M14. For the same compound, the GI50 is 2.55 µM (inactive) in the assay with OVCAR-5; 13.7 µM (inactive) with A498; 2.67 µM (inactive) in the assay on SNB-19; 2.05 µM (inactive) with RXF 393; 5.43 µM (inactive) in the assay with NCI/ADR-RES; 2.07 µM (inactive) in the assay on U-251. Besides, the GI50 with SK-MEL-28 was 15 µM (inactive); in the assay with NCI-H226, 6.18 µM (inactive).

As to `N=C(N)c1ccc(-c2ccc(-c3ccc(C(=N)N)cc3)o2)cc1` [FURAMIDINE HYDROCHLORIDE], the GI50 was 40.9 µM in the assay with HCT-15; 24.9 µM (inactive) in the assay with CCRF-CEM; 62.4 µM (inactive) in the assay on HOP-92; 23.4 µM (inactive) in the assay with T47D; 24.8 µM (inactive) in the assay with NCI-H522; 24.5 µM (inactive) with HT-29. For the same compound, the GI50 with COLO 205 was 12.4 µM (inactive); in the assay on UACC-257 it was 27.9 µM (inactive); in the assay with Hs-578T, 21.4 µM (inactive); with SK-MEL-5, 11.9 µM (inactive); in the assay on PC-3, 39.5 µM (inactive); in the assay with M14 it was 25.1 µM (inactive). The GI50 is 18.9 µM (inactive) with OVCAR-5; 63.7 µM (inactive) with A498; 51.9 µM (inactive) with SNB-19; 32 µM (inactive) with RXF 393; 31.3 µM (inactive) with NCI/ADR-RES; 16.6 µM (inactive) with U-251. In addition, the GI50 is 20.6 µM (inactive) with SK-MEL-28 and 69.2 µM (inactive) in the assay with NCI-H226.

On to `O=C(CCc1cccc(O)c1)NCCc1cccc(OCc2ccccc2)c1`, for which the GI50 in the assay on HCT-15 is 19.9 µM; in the assay with CCRF-CEM it was 12.6 µM (inactive); with HOP-92 it was 14.9 µM (inactive); in the assay with T47D, 18.8 µM (inactive); in the assay on NCI-H522, 17.1 µM (inactive); in the assay on HT-29, 16.6 µM (inactive). Besides, the GI50 was 19.7 µM (inactive) in the assay with COLO 205; 16.3 µM (inactive) with UACC-257; 16.4 µM (inactive) in the assay on Hs-578T; 16 µM (inactive) in the assay with SK-MEL-5; 10.3 µM (inactive) in the assay on PC-3; 16.2 µM (inactive) in the assay with M14. In addition, the GI50 is 24.7 µM (inactive) in the assay with OVCAR-5; 25.4 µM (inactive) in the assay with A498; 22.8 µM (inactive) in the assay with SNB-19; 19.7 µM (inactive) in the assay on RXF 393; 18.3 µM (inactive) in the assay on NCI/ADR-RES; 16.5 µM (inactive) in the assay on U-251. Further, the GI50 is 16.1 µM (inactive) in the assay with SK-MEL-28 and 11.4 µM (inactive) in the assay with NCI-H226.

Consider `CC(C)=CCC[C@@H](C)C1=C(O)C(=O)C(C)=C(Nc2ccccc2Cl)C1=O`, for which the GI50 in the assay with HCT-15 was 7.26 µM; in the assay with CCRF-CEM, 4.41 µM (inactive); with HOP-92, 27.8 µM (inactive); in the assay on T47D, 12.6 µM (inactive); with NCI-H522, 6.25 µM (inactive); in the assay on HT-29, 13 µM (inactive). Further, the GI50 in the assay on COLO 205 was 14.2 µM (inactive); in the assay on UACC-257, 25.9 µM (inactive); in the assay with Hs-578T, 21.7 µM (inactive); in the assay with SK-MEL-5 it was 16.8 µM (inactive); with PC-3, 18.5 µM (inactive); in the assay on M14, 21.4 µM (inactive). In addition, the GI50 was 45.7 µM (inactive) in the assay with OVCAR-5; 17.5 µM (inactive) with A498; 30.7 µM (inactive) in the assay with SNB-19; 22.3 µM (inactive) in the assay on RXF 393; 1.82 µM (inactive) in the assay with NCI/ADR-RES; 16.3 µM (inactive) with U-251. The results for the GI50 in the assay with SK-MEL-28 and in the assay with NCI-H226 were 26.5 µM (inactive) and 13.1 µM (inactive), respectively.

Consider `CC(C)CCC/C(CBr)=C(\Cl)CCl`, for which the GI50 in the assay on HCT-15 is 2.8 µM; in the assay on CCRF-CEM, 0.123 µM (active); with HOP-92, 2.14 µM (inactive); in the assay with T47D it was 1.17 µM (inactive); in the assay with NCI-H522, 0.15 µM (active); with HT-29, 2.37 µM (inactive). Also, the GI50 in the assay on COLO 205 is 1.83 µM (inactive); in the assay with UACC-257, 2.13 µM (inactive); in the assay with Hs-578T it was 2.45 µM (inactive); in the assay with SK-MEL-5, 1.95 µM (inactive); with PC-3, 4.76 µM (inactive); in the assay with M14 it was 1.93 µM (inactive). Further, the GI50 in the assay with OVCAR-5 is 15.1 µM (inactive); in the assay on A498 it was 20.7 µM (inactive); with SNB-19, 14.5 µM (inactive); in the assay with RXF 393, 1.57 µM (inactive); in the assay with NCI/ADR-RES it was 3.27 µM (inactive); in the assay with U-251, 4.04 µM (inactive). For the same compound, the GI50 was 2.07 µM (inactive) in the assay with SK-MEL-28 and 7.89 µM (inactive) in the assay with NCI-H226.

For the compound `O=C(c1ccc(Cl)cc1Cl)N(Cc1cccnc1)C(=S)N(Cc1cccnc1)C(=O)c1ccc(Cl)cc1Cl`, the GI50 in the assay with HCT-15 is 3.12 µM; in the assay on CCRF-CEM it was 1.86 µM (inactive); with HOP-92, 3.83 µM (inactive); in the assay on T47D it was 11.4 µM (inactive); with NCI-H522 it was 2.94 µM (inactive); in the assay on HT-29, 2.38 µM (inactive). For the same compound, the GI50 in the assay with COLO 205 is 2.08 µM (inactive); in the assay with UACC-257, 6.32 µM (inactive); with Hs-578T, 21 µM (inactive); in the assay with SK-MEL-5, 3.33 µM (inactive); in the assay on PC-3 it was 2.4 µM (inactive); in the assay with M14 it was 3.01 µM (inactive). Moreover, the GI50 was 10.7 µM (inactive) in the assay on OVCAR-5; 10.3 µM (inactive) in the assay on A498; 12 µM (inactive) with SNB-19; 6.43 µM (inactive) in the assay on RXF 393; 15.5 µM (inactive) with NCI/ADR-RES; 3.15 µM (inactive) in the assay on U-251. The results for the GI50 in the assay with SK-MEL-28 and in the assay with NCI-H226 were 10.9 µM (inactive) and 16.7 µM (inactive), respectively.

Turning to `CN(C)/C=N/c1ccc2c3c(cccc13)-c1ccccc1-2`, the GI50 with HCT-15 is 11.8 µM; with CCRF-CEM, 2.23 µM (inactive); with HOP-92, 12.4 µM (inactive); in the assay on T47D it was 15 µM (inactive); in the assay on NCI-H522, 3.66 µM (inactive); with HT-29 it was 10 µM (inactive). Besides, the GI50 in the assay on COLO 205 was 16.6 µM (inactive); in the assay with UACC-257 it was 17.3 µM (inactive); in the assay on Hs-578T it was 10.3 µM (inactive); in the assay with SK-MEL-5 it was 14.9 µM (inactive); in the assay with PC-3, 12.8 µM (inactive); in the assay with M14 it was 10.2 µM (inactive). Besides, the GI50 in the assay with OVCAR-5 is 11.1 µM (inactive); with A498, 10.1 µM (inactive); with SNB-19, 14.4 µM (inactive); with RXF 393, 7.83 µM (inactive); in the assay with NCI/ADR-RES, 14.9 µM (inactive); with U-251, 13.4 µM (inactive). The GI50 in the assay with SK-MEL-28 was 17.7 µM (inactive); with NCI-H226, 10.6 µM (inactive).

Consider `CCOC(=O)c1ccc2nc(-c3ccc(S(=O)(=O)F)cc3)cc(O)c2c1`, for which the GI50 in the assay on HCT-15 is 31.6 µM; in the assay with CCRF-CEM it was 30.7 µM (inactive); in the assay on HOP-92, > 100 µM (inactive); in the assay on T47D, 25.1 µM (inactive); in the assay on NCI-H522, 15.8 µM (inactive); in the assay on HT-29, 62.1 µM (inactive). Further, the GI50 in the assay on COLO 205 is 58.9 µM (inactive); in the assay with UACC-257, 51.8 µM (inactive); with Hs-578T, 54.8 µM (inactive); in the assay with SK-MEL-5, 50.2 µM (inactive); in the assay on PC-3, 50.6 µM (inactive); in the assay on M14, 40.9 µM (inactive). The GI50 in the assay on OVCAR-5 is > 100 µM (inactive); with A498 it was 14.8 µM (inactive); in the assay on SNB-19, > 100 µM (inactive); in the assay on RXF 393 it was 31.9 µM (inactive); in the assay on NCI/ADR-RES, > 100 µM (inactive); in the assay with U-251, 34.9 µM (inactive). In addition, the figures for the GI50 with SK-MEL-28 and with NCI-H226 were 59.6 µM (inactive) and > 100 µM (inactive), respectively.
